Reference: PMC7876106 (Scientific Reports, 2021)

Test system: TERRA (unlabelled) (RNA, G4) UUAGGGUUAGGGUUAGGGUUAGGG
Assay: circular dichroism
Conditions: 150 mM KCl; 20 mM HEPES pH 7.5, 20% PEG8000, 4 °C, 10 μM RNA, mixed 1:1 molar ratio

Question: With `CCc1c(C)c2cc3nc(cc4nc(cc5c(CC)c(C)c(cc1[nH]2)n5C)C(C)=C4CCC(=O)O)C(CCC(=O)O)=C3C` [NMM, N-methyl mesoporphyrin IX] as the compound, how does the binding read?
Answer: Its binding is “yes”.
